Measurements from paper PMC8779631, “Binding Properties of Odorant-Binding Protein 4 of Tirathaba rufivena to Areca catechu Volatiles” (Plants, 2022).

Assays:
TrufOBP4 [1] = experiment: Binding of fluorescent reporter 1-NPN (titration, Scatchard plot); design: species or system Tirathaba rufivena; conditions: 2 μM protein titrated with 2 to 20 μM 1-NPN; read-out: K1-NPN (dissociation constant of 1-NPN)
Description: (§1) The binding ability of purified recombinant OBPs was evaluated with an F-7000 fluorescence spectrometer (Hitachi, Tokyo, Japan). The fluorescence spectra were recorded between 360 and 650 nm. N-Phenyl-1-naphthylamine (1-NPN) was selected as the fluorescent reporter and dissolved in chromatographic methanol at a concentration of 1 mM. The purified TrufOBP4 was dissolved in 50 mM Tris-HCl (pH 7.4) at a final concentration of 2 μM. The data for the 1-NPN-TrufOBP4 complex formation were obtained by titration of 2 μM protein with increasing concentrations (2 to 20 μM) of 1-NPN. The dissociation constant of 1-NPN (K1-NPN) was calculated using Prism 8 (GraphPad Software, San Diego, USA). To evaluate the binding ability of TrufOBP4 with volatiles, 1-NPN was replaced with different odor compounds from the TrufOBP4/1-NPN complex. The odor ligands were dissolved in chromatographic methanol at a concentration of 1 mM and added as aliquots to the protein solution. The spectral results were obtained, and the dissociation constants of the competitors were calculated with the formula: Ki = IC50/(1 + [1-NPN]/K1-NPN), where 1-NPN represents the free concentration of 1-NPN, and IC50 represents the ligand concentration displacing 50% of the fluorescent reporter.

TrufOBP4 [2] = experiment: Fluorescence competitive binding assay (displacement of 1-NPN); design: species or system Tirathaba rufivena; conditions: 2 μM protein, 50 mM Tris-HCl pH 7.4; for Ki: Ki = IC50/(1 + [1-NPN]/K1-NPN); for IC50: ligand concentration displacing 50% of 1-NPN
Description: as §1

Tribolium castaneum = test system: Tribolium castaneum; design: method as in earlier work; conditions: cited from earlier work
Rhyzopertha dominica = test system: Rhyzopertha dominica; design: method as in earlier work; conditions: cited from earlier work
EoblGOBP2 = test system: EoblGOBP2; design: method as in PMID 29778539, PMID 29543772; conditions: cited from earlier work
Hyphantria cunea = test system: Hyphantria cunea; design: method as in PMID 32547409; conditions: stimulation with the compound; cited from earlier work
Holotrichia oblita = test system: Holotrichia oblita; design: method as in earlier work; conditions: cited from earlier work
AipsGOBP2 = test system: AipsGOBP2; design: method as in PMID 29778539, PMID 29543772; conditions: cited from earlier work
PregOBP56a = test system: PregOBP56a; design: method as in PMID 23326317; conditions: cited from earlier work
MbraPBP1 = test system: MbraPBP1; design: method as in PMID 11274212; conditions: cited from earlier work
LsatOBP1 = test system: LsatOBP1; design: method as in PMID 11274212; conditions: cited from earlier work

SMILES | Ki (TrufOBP4 [2]) [µM] | IC50 (TrufOBP4 [2]) [µM] | other results
c1ccc(Nc2cccc3ccccc23)cc1 [1-NPN, N-Phenyl-1-naphthylamine] | – | – | Kd (TrufOBP4 [1]): 6.79 µM
CCCCC(CC)CO (stereo not drawn) [2-Ethylhexanol] | 21 | 24.1 | –
CC1=CCC2C(C1)C2(C)C (stereo not drawn) [3-Carene] | 19.5 | 22.4 | –
CCC=CCCOC(C)=O [3-Hexenyl acetate] | 40.6 | 46.6 | –
CCC(C)C(=O)OCCC(C)C (stereo not drawn) [3-Methylbutyl 2-methylbutanoate] | 45.8 | > 50 | –
C=C(C)[C@H]1CC=C(C)CC1 [(R)-(+)-limonene] | 22.1 | 25.3 | –
C=C(C)[C@@H]1CC=C(C)CC1 [(S)-(−)-Limonene] | 29.1 | 33.4 | –
C=C(C)[C@H]1CC=C(C)CC1 [Cinene] | > 50 | > 50 | –
CC12CCC(CC1)C(C)(C)O2 [Cineole] | > 50 | > 50 | –
CCCCOC(=O)c1ccccc1C(=O)OCCCC [Dibutyl phthalate] | 4.61 | 5.29 | effect on behavior (Tribolium castaneum): repellent; effect on behavior (Rhyzopertha dominica): repellent; binding affinity (EoblGOBP2): outstanding binding affinity; mating rates (Hyphantria cunea): significantly increased; effect on behavior (Holotrichia oblita): attractive effect; binding affinity (AipsGOBP2): outstanding binding affinity
C=Cc1ccccc1 [Styrene] | 36.2 | 41.5 | –
CCCCC/C=C\C/C=C\CCCCCCCC(=O)O [linoleic] | – | – | binding affinity (PregOBP56a): high binding affinity
CCCCCCCC/C=C\CCCCCCCC(=O)O [oleic] | – | – | binding affinity (PregOBP56a): high binding affinity
CCCCCCCCCCCCCCCCCC(=O)O [stearic] | – | – | binding affinity (PregOBP56a): high binding affinity

Now from value to compound, other results behind:

Ki (TrufOBP4 [2]) [µM] | IC50 (TrufOBP4 [2]) [µM] | SMILES | other results
> 50 | > 50 | CCCCCCOC(C)=O [Hexyl acetate] | –
21 | 24.1 | CC(=O)OCCC(C)C [Isoanyl acetate] | –
> 50 | > 50 | C=CC(C)(O)CCC=C(C)C (stereo not drawn) [Linalol] | –
> 50 | > 50 | COC(=O)c1ccccc1O [Methyl salicylate] | –
17.3 | 19.8 | C=CC(=C)CCC=C(C)C [Myrcene] | –
3.52 | 4.04 | CCCCCCCCCCCCCC(=O)O [Myristic acid] | –
1.16 | 1.33 | CCCCC(CC)COC(=O)C=Cc1ccc(OC)cc1 (stereo not drawn) [Octyl methoxycinnamate] | –
5.28 | 6.06 | CCCCCCCCCCCCCCCC(=O)O [Palmitic acid] | binding affinity (PregOBP56a): high binding affinity; binding (MbraPBP1): bind well; binding (LsatOBP1): bind well
29 | 33.3 | C=C1CCC2CC1C2(C)C (stereo not drawn) [β-Pinene] | –
